# Source: patent US6737383B1, “Herbicidal oxadiazolidines” (priority 1999, dated 2004)
# What was measured:
# smallflower flatsedge = assay: Test B flood test smallflower flatsedge; type: in vivo, Cyperus difformis
# Method in brief: (§1)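 Read-out is a visual response score from 0 (no effect) to 10 (complete control), assigned by comparison with untreated controls. Treatment was applied at the 2-leaf stage, and plants stayed in the greenhouse for twelve to sixteen days before scoring.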
# purple nutsedge = assay: Test B pre/postemergence purple nutsedge; type: in vivo, Cyperus rotundus
# Method in brief: (§2)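 Herbicidal effect was estimated by eye on a ten-point control scale after plants spent twelve to sixteen days in a greenhouse following soil or foliar treatment. Foliar sprays targeted plants at one to four leaves; all doses were formulated in a non-phytotoxic solvent with surfactant.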
# bedstraw = assay: Test B pre/postemergence bedstraw; type: in vivo, Galium aparine
# Method in brief: as §2
# corn = assay: Test B pre/postemergence corn; type: in vivo, Zea mays
# Method in brief: as §2
# pigweed = assay: Test B pre/postemergence pigweed; type: in vivo, Amaranthus retroflexus
# Method in brief: as §2
# blackgrass = assay: Test B pre/postemergence blackgrass; type: in vivo, Alopecurus myosuroides
# Method in brief: as §2
# wild oat = assay: Test B pre/postemergence wild oat; type: in vivo, Avena fatua
# Method in brief: as §2
# soybean = assay: Test B pre/postemergence soybean; type: in vivo, Glycine max
# Method in brief: as §2
# sugar beet = assay: Test B pre/postemergence sugar beet; type: in vivo, Beta vulgaris
# Method in brief: as §2
# surinam grass = assay: Test B pre/postemergence surinam grass; type: in vivo, Brachiaria decumbens
# Method in brief: as §2
# rape = assay: Test B pre/postemergence rape; type: in vivo, Brassica napus
# Method in brief: as §2
# bamyardgrass = assay: Test B flood test barnyardgrass; type: in vivo, Echinochloa crus-galli
# Method in brief: as §1
# velvetleaf = assay: Test B pre/postemergence velvetleaf; type: in vivo, Abutilon theophrasti
# Method in brief: as §2
# cocklebur = assay: Test B pre/postemergence cocklebur; type: in vivo, Xanthium strumarium
# Method in brief: as §2
# morningglory = assay: Test B pre/postemergence morningglory; type: in vivo, Ipomoea hederacea
# Method in brief: as §2
# [1] = Rate 62 g/ha, flood test species, Pre-emergence, visual evaluation after twelve to sixteen days
# [2] = Rate 125 g/ha, under heading Pre-emergence, flood test species, visual evaluation after twelve to sixteen days
# [3] = Rate 250 g/ha, Pre-emergence (flood test species), scale 0 to 10, 0 is no effect, 10 is complete control
# [4] = Rate 500 g/ha, Pre-emergence section of Table B, 0 to 10 scale (0 no effect, 10 complete control)
# [5] = Postemergence, Rate 62 g/ha, scale 0 to 10, 0 is no effect, 10 is complete control
# [6] = Postemergence, Rate 125 g/ha, scale of 0 to 10 where 0 is no effect and 10 is complete control
# [7] = Postemergence, Rate 250 g/ha, scale of 0 to 10, 0 is no effect, 10 is complete control
# [8] = Postemergence, Rate 500 g/ha, scale of 0 to 10 where 0 is no effect and 10 is complete control
# [9] = Preemergence, Rate 62 g/ha, scale of 0 to 10 where 0 is no effect and 10 is complete control
# [10] = Preemergence, Rate 125 g/ha, scale of 0 to 10 where 0 is no effect and 10 is complete control
# [11] = Preemergence, Rate 250 g/ha, scale 0 to 10 (0 no effect, 10 complete control)
# [12] = Preemergence, Rate 500 g/ha, scale of 0 to 10 where 0 is no effect and 10 is complete control
smiles,measurement,setting,value
CCCCCn1c(=O)on(C(=O)N(c2ccc(F)cc2F)C(C)C)c1=O [Compound 636],"Plant response rating, S. Flatsedge (0 to 10 scale, 0 is no effect, 10 is complete control)",smallflower flatsedge; [1],0
same,"S. Flatsedge plant response rating (0 to 10 scale, 0 is no effect, 10 is complete control)",smallflower flatsedge; [2],0
same,S. Flatsedge plant response rating,smallflower flatsedge; [3],0
same,S. Flatsedge plant response rating,smallflower flatsedge; [4],0
same,"Plant response rating, Nutsedge",purple nutsedge; [5],0
same,"Plant response rating, Nutsedge",purple nutsedge; [6],0
same,Nutsedge plant response rating,purple nutsedge; [7],0
same,"Plant response rating, Nutsedge",purple nutsedge; [8],0
same,Nutsedge plant response rating,purple nutsedge; [9],0
same,Nutsedge plant response rating,purple nutsedge; [10],0
same,"Plant response rating, Nutsedge",purple nutsedge; [11],0
same,"Plant response rating, Nutsedge",purple nutsedge; [12],10
same,"Plant response rating, Bedstraw",bedstraw; [5],7
same,"Plant response rating, Bedstraw",bedstraw; [6],7
same,Bedstraw plant response rating,bedstraw; [7],9
same,Bedstraw plant response rating,bedstraw; [10],5
same,"Plant response rating, Bedstraw",bedstraw; [11],9
same,"Plant response rating, Bedstraw",bedstraw; [12],9
same,"Plant response rating, Corn",corn; [5],2
same,"Plant response rating, Corn",corn; [6],2
same,Corn plant response rating,corn; [7],2
same,"Plant response rating, Corn",corn; [8],2
same,Corn plant response rating,corn; [10],0
same,"Plant response rating, Corn",corn; [11],0
same,"Plant response rating, Corn",corn; [12],3
same,"Plant response rating, Redroot pigweed",pigweed; [5],0
same,"Plant response rating, Redroot pigweed",pigweed; [6],0
same,Redroot pigweed plant response rating,pigweed; [7],6
same,Redroot pigweed plant response rating,pigweed; [9],10
same,Redroot pigweed plant response rating,pigweed; [10],10
same,"Plant response rating, Redroot pigweed",pigweed; [11],10
same,"Plant response rating, Redroot pigweed",pigweed; [12],10
same,"Plant response rating, Blackgrass",blackgrass; [5],0
same,"Plant response rating, Blackgrass",blackgrass; [6],0
same,Blackgrass plant response rating,blackgrass; [7],3
same,"Plant response rating, Blackgrass",blackgrass; [8],5
same,Blackgrass plant response rating,blackgrass; [9],2
same,Blackgrass plant response rating,blackgrass; [10],4
same,"Plant response rating, Blackgrass",blackgrass; [11],4
same,"Plant response rating, Blackgrass",blackgrass; [12],7
same,"Plant response rating, Wild oats",wild oat; [5],0
same,"Plant response rating, Wild oats",wild oat; [6],0
same,Wild oats plant response rating,wild oat; [7],0
same,Wild oats plant response rating,wild oat; [9],0
same,Wild oats plant response rating,wild oat; [10],0
same,"Plant response rating, Wild oats",wild oat; [11],0
same,"Plant response rating, Wild oats",wild oat; [12],5
same,"Plant response rating, Soybean",soybean; [5],2
same,"Plant response rating, Soybean",soybean; [6],2
same,Soybean plant response rating,soybean; [7],4
same,Soybean plant response rating,soybean; [9],0
same,Soybean plant response rating,soybean; [10],0
same,"Plant response rating, Soybean",soybean; [11],0
same,"Plant response rating, Soybean",soybean; [12],4
same,"Plant response rating, Sugarbeets",sugar beet; [5],2
same,"Plant response rating, Sugarbeets",sugar beet; [6],2
same,Sugarbeets plant response rating,sugar beet; [7],5
same,Sugarbeets plant response rating,sugar beet; [9],0
same,Sugarbeets plant response rating,sugar beet; [10],0
same,"Plant response rating, Sugarbeets",sugar beet; [11],6
same,"Plant response rating, Sugarbeets",sugar beet; [12],7
same,"Plant response rating, B. signalgrass",surinam grass; [5],0
same,"Plant response rating, B. signalgrass",surinam grass; [6],0
same,B. signalgrass plant response rating,surinam grass; [7],0
same,"Plant response rating, B. signalgrass",surinam grass; [8],3
same,B. signalgrass plant response rating,surinam grass; [9],3
same,B. signalgrass plant response rating,surinam grass; [10],9
same,"Plant response rating, B. signalgrass",surinam grass; [11],8
same,"Plant response rating, B. signalgrass",surinam grass; [12],9
same,"Plant response rating, Rape",rape; [5],2
same,"Plant response rating, Rape",rape; [6],6
same,Rape plant response rating,rape; [7],7
same,"Plant response rating, Rape",rape; [8],7
same,Rape plant response rating,rape; [9],0
same,Rape plant response rating,rape; [10],2
same,"Plant response rating, Rape",rape; [11],7
same,"Plant response rating, Rape",rape; [12],10
same,"Plant response rating, Barnyardgrass (0 to 10 scale, 0 is no effect, 10 is complete control)",bamyardgrass; [1],0
same,"Barnyardgrass plant response rating (0 to 10 scale, 0 is no effect, 10 is complete control)",bamyardgrass; [2],0
same,Barnyardgrass plant response rating,bamyardgrass; [3],0
same,Barnyardgrass plant response rating,bamyardgrass; [4],2
same,"Plant response rating, Velvetleaf",velvetleaf; [5],3
same,"Plant response rating, Velvetleaf",velvetleaf; [6],3
same,Velvetleaf plant response rating,velvetleaf; [7],3
same,Velvetleaf plant response rating,velvetleaf; [9],0
same,Velvetleaf plant response rating,velvetleaf; [10],0
same,"Plant response rating, Velvetleaf",velvetleaf; [11],2
same,"Plant response rating, Velvetleaf",velvetleaf; [12],4
same,"Plant response rating, Cocklebur",cocklebur; [5],0
same,"Plant response rating, Cocklebur",cocklebur; [6],3
same,Cocklebur plant response rating,cocklebur; [7],3
same,"Plant response rating, Cocklebur",cocklebur; [8],3
same,Cocklebur plant response rating,cocklebur; [9],0
same,Cocklebur plant response rating,cocklebur; [10],0
same,"Plant response rating, Cocklebur",cocklebur; [11],0
same,"Plant response rating, Cocklebur",cocklebur; [12],0
same,"Plant response rating, Morningglory",morningglory; [5],2
same,"Plant response rating, Morningglory",morningglory; [6],2
same,Morningglory plant response rating,morningglory; [7],6
same,"Plant response rating, Morningglory",morningglory; [8],6
same,Morningglory plant response rating,morningglory; [9],0
same,Morningglory plant response rating,morningglory; [10],0
same,"Plant response rating, Morningglory",morningglory; [11],0
same,"Plant response rating, Morningglory",morningglory; [12],2
